Measurements from article PMC7559245 (iScience, 2020).

Tested on: Kv2.1 channel
Experiment: whole-cell patch clamp in CHO-Kv2.[…] cells
Format: cell-based

IC50: 9.53 µM
Compound: CCN(CC)CCOC(=O)C(c1ccccc1)C1CCCCC1 (stereo not shown) [Dfe, drofenine]
